{"source": "patent US20050226879A1", "about": "“Methods and compositions related to inhibiting nuclear envelope breakdown” (priority 2002, published 2005)", "type_in_all_cases": "biochemical, Xenopus laevis", "key": {"[1]": {"test_system": "nuclear envelope breakdown", "test": "In vitro nuclear disassembly assay (nuclei assembled in Xenopus egg extract, cyclin B added)", "conditions": "for function in the nuclear disassembly assay (inhibition of nuclear envelope breakdown): synthetic peptides 44 μM, 15 minutes prior to sperm chromatin, assessed 75 and 95 minutes post cyclin, qualitative", "excerpt": "To investigate whetherNup153 participates in nuclear envelope breakdown, recombinant fragments of Nup153 were examined to determine if they exert dominant negative effects on this process in vitro. Cell-free extracts derived from Xenopus eggs were used to form synthetic nuclei around sperm chromatin. This system offers the advantage of biochemical manipulation, while being well-established to robustly recapitulate both nuclear assembly as well as nuclear disassembly in response to mitotic signals (Murray, A. W. et al., Nature 339, 280-286 (1989)). Cycloheximide was included to prevent synthesis of cyclin, thereby arresting these extracts in interphase. After nuclei were assembled, a recombinant form of stabilized cyclin B was added to initiate mitotic events. […] Detection of import cargo provided the clearest visualization of whether a nuclear envelope was intact. […] A control GST fusion protein (FIG. 7B, lanes 1 and 5) likewise had no effect (FIG. 7C, panels g and h). […] In addition, nuclear import cargo was still concentrated in nuclei under mitotic conditions, confirming both the presence and integrity of the nuclear envelope (FIG. 7C, panel o). The effect of the Nup153 zinc finger was not due to selective stability of this fragment, as equivalent levels of recombinant protein were detected in each reaction by immunoblot following the last time point (FIG. 7B, lanes 9-11).\nInterphase Xenopus egg extracts were prepared using egg lysis buffer (ELB: 250 mM sucrose, 50 mM KCl, 2.5 mM MgCl2, 10 mM Hepes pH 7.4) supplemented with 1 mM dithiothreitol (DTT), 5 μg/ml cytochalasin B, aprotinin and leupeptin (10 μg/ml each), and 50 μg/ml cycloheximide (Powers, et al., In Current Protocols in Cell Biology (New York, John Wiley & Sons), pp. 11.10.11-11.11.24, (2001). Eggswere lysed by centrifugation for 15 min at 10,000 rpm. The cytoplasmic layer was collected as crude extract. For preparation of fiactionated egg extract, the crude extract was further centrifuged for 1.5 hr at 268,000 x g. The clarified supernatant was removed and further centrifuged for 1 hr at 259,000 x g to remove residual membranes. The crude extract was stored in liquid nitrogen; fractionated extract was frozen in liquid nitrogen and then stored at −80° C.\n(§1) Demembranated condensed sperm chromatin was isolated from Xenopus testes as described previously (Powers, et al., In Current Protocols in Cell Biology (New York, John Wiley & Sons), pp. 11.10.11-11.11.24, (2001). For the assembly of nuclei, an ATP-generating system was added to 28 μl of crude egg extract. Sperm chromatin was added and nuclei were allowed to assemble by incubation at room temperature. After assembly for 1 hr, import substrate (NLS-HSA-RITC, prepared as in (Powers, et al., In Current Protocols in Cell Biology (New York, John Wiley & Sons), pp. 11.10.11-11.11.24, (2001)) was added to the reaction and incubated for another 30 min to assess the presence of functional pores and membrane integrity. Recombinant cyclin B with a deletion that confers stability was then added to the nuclei to initiate mitotic events (Murray, A. W., et al., Nature 339, 280-286 (1989). The role of cyclin synthesis and degradation in the control of maturation promoting factor activity Nature 339, 280-286, 1989). Samples were taken from the reaction at the indicated time points to monitor by fluorescence microscopy using DHCC (Calbiochem, San Diego, Calif.) to monitor membranes and Hoechst 33258 (Calbiochem) to monitor DNA. To examine the effects of protein fragments and antibodies on nuclear disassembly, the reagent in question was incubated with crude extract for 15 minutes at room temperature prior to the addition of sperm chromatin and energy mix. As noted, for protein fragments either 3 μg (corresponding to final concentrations of 3.3 μM, 1.7 μM, and 1.5 μM for GST, GST-N, and GST-Z respectively) or 4 μg (corresponding to final concentrations of 4.4 μM and 2 μM for GST and GST-Z respectively) was added. […]"}, "[2]": {"test_system": "nuclear envelope breakdown", "test": "In vitro nuclear disassembly assay (nuclei assembled in Xenopus egg extract, cyclin B added)", "conditions": "peptide added after nuclear assembly has taken place"}, "[3]": {"test_system": "nuclear assembly and NLS-mediated import", "test": "Nuclear assembly and NLS import in egg extract (interphase)", "conditions": "ARF peptide 22 μM present", "description": "as §1, with “DNA.” for “DNA. To examine the effects of protein fragments and antibodies on nuclear disassembly, the reagent in question was incubated with crude extract for 15 minutes at room temperature prior to the addition of sperm chromatin and energy mix. As noted, for protein fragments either 3 μg (corresponding to final concentrations of 3.3 μM, 1.7 μM, and 1.5 μM for GST, GST-N, and GST-Z respectively) or 4 μg (corresponding to final concentrations of 4.4 μM and 2 μM for GST and GST-Z respectively) was added.”"}}, "note": "Entries after “also recorded” stand apart in the source; their conditions may differ."}
{"molecule": "C[C@H]1CCC/C=C/[C@@H]2C[C@H](O)C[C@H]2[C@H](O)/C=C/C(=O)O1", "note": "[Brefeldin A]", "values": [{"measurement": "effect on nuclear envelope breakdown", "setting": "[1]; Brefeldin A 0.6 μg/ml final, added 15 min prior to assembly", "result": "interferes with nuclear envelope breakdown; also recorded: very clear interference of nuclear envelope breakdown"}]}
{"molecule": "(C)ESGELKPEDDVTVGPAQK (CESGELKPEDDVTVGPAQK; N-terminal cysteine) [immunogenic peptide]", "values": [{"measurement": "protective effect of anti-β-COP antibodies on inclusion of the peptide", "setting": "[1]; anti-β-COP 5 μg incubated with β-COP peptide 5 μg for 15 min before addition", "result": "blocked"}]}
{"molecule": "CEQTYRVCGGGS (CEQTLYRVCGGGS)", "values": [{"measurement": "function in the nuclear disassembly assay (inhibition of nuclear envelope breakdown)", "setting": "[1]", "result": "not inhibitory"}]}
{"molecule": "CGEHVRPSCGGGS", "values": [{"measurement": "function in the nuclear disassembly assay (inhibition of nuclear envelope breakdown)", "setting": "[1]", "result": "did not have activity"}]}
{"molecule": "CNNTRSPYCGGGS", "values": [{"measurement": "function in the nuclear disassembly assay (inhibition of nuclear envelope breakdown)", "setting": "[1]", "result": "not inhibitory"}]}
{"molecule": "CTHPFTHECGGGS [ZNFPHD1]", "values": [{"measurement": "inhibition of nuclear envelope breakdown", "setting": "[1]; synthetic form as well as displayed form", "result": "capable of inhibiting nuclear envelope breakdown"}, {"measurement": "function in the nuclear disassembly assay (inhibition of nuclear envelope breakdown)", "setting": "[1]", "result": "inhibitory"}, {"measurement": "function in the nuclear disassembly assay", "setting": "[2]", "result": "not inhibitory"}]}
{"molecule": "EKKGFLGKFLNAF MNG (EKKGFLGKFLNAFMNG) [ARF 17-2]", "values": [{"measurement": "effect on nuclear disassembly", "setting": "[1]; ARF peptides 22 μM, 75 minutes after cyclin addition", "result": "no significant affect"}]}
{"molecule": "GNMFANLFKGLFGKKE [ARF peptide]", "values": [{"measurement": "nuclei remaining intact", "setting": "[1]; ARF peptide 22 μM, 75 minutes after cyclin addition", "result": 90, "unit": "%"}, {"measurement": "nuclear assembly", "setting": "[3]", "result": "proceeded"}]}
